Measurements as given in ChEMBL document CHEMBL3885881, “DrugMatrix”.

Organism: Rattus norvegicus
Experiment: DrugMatrix - Regimen: Daily Repeat
Assay type: toxicity, organism-based, Sprague-Dawley
Design: regimen Daily Repeat, gender Male, age 6-8 weeks
Conditions: in vivo, po, route oral GAVAGE, vehicle .5 % CMC; for BASOPHIL / EOSINOPHIL / ERYTHROCYTE COUNT / HEMATOCRIT / HEMOGLOBIN / LEUKOCYTE COUNT / LYMPHOCYTE / MEAN CORPUSCULAR HEMOGLOBIN / MEAN CORPUSCULAR HEMOGLOBIN CONCENTRATION / MEAN CORPUSCULAR VOLUME / MONOCYTE / NEUTROPHIL / PLATELET COUNT: tissue Blood; for ALANINE AMINOTRANSFERASE / ALBUMIN / ALKALINE PHOSPHATASE / ASPARTATE AMINOTRANSFERASE / BLOOD UREA NITROGEN / CHLORIDE / CHOLESTEROL / CREATINE PHOSPHOKINASE / CREATININE / GLUCOSE / PHOSPHORUS / POTASSIUM / SODIUM / TOTAL BILIRUBIN / TOTAL PROTEIN: tissue Plasma
[1] = 20 mg/kg, 72 h, dose level Low, time 3 day
[2] = 20 mg/kg, 120 h, dose level Low, time 5 day
[3] = 380 mg/kg, 72 h, dose level High, time 3 day
[4] = 380 mg/kg, 120 h, dose level High, time 5 day

`CNCCCC12CCC(c3ccccc31)c1ccccc12` [MAPROTILINE] was tested, and the BASOPHIL [1] was 0%, the EOSINOPHIL [1] was 0.33% and the “ERYTHROCYTE COUNT” value [1] was 5.97 x10E6/uL. The HEMATOCRIT [1] was 35.97%, the HEMOGLOBIN [1] was 14.2 G/DL and the “LEUKOCYTE COUNT” value [1] was 11.3 x10E3/uL. The LYMPHOCYTE [1] was 87.33%, the “MEAN CORPUSCULAR HEMOGLOBIN” value [1] was 23.77 pg and the “MEAN CORPUSCULAR HEMOGLOBIN CONCENTRATION” value [1] was 39.47 G/DL. For the same molecule, the “MEAN CORPUSCULAR VOLUME” value [1] was 60.2 fL, the MONOCYTE [1] was 1.67% and the NEUTROPHIL [1] was 10.67%. The “PLATELET COUNT” value [1] was 1123 x10E3/uL, the “ALANINE AMINOTRANSFERASE” value [1] was 39.33 u/L and the ALBUMIN [1] was 3.83 G/DL. For the same molecule, the “ALKALINE PHOSPHATASE” value [1] was 403 u/L, the “ASPARTATE AMINOTRANSFERASE” value [1] was 64 u/L and the “BLOOD UREA NITROGEN” value [1] was 12.67 mg/dL. The CHLORIDE [1] was 106.67 MEQ/L, the CHOLESTEROL [1] was 71.67 mg/dL and the “CREATINE PHOSPHOKINASE” value [1] was 175 u/L. It also gave a CREATININE [1] of 0.67 mg/dL, a GLUCOSE [1] of 177.33 mg/dL and a PHOSPHORUS [1] of 12.37 mg/dL. The POTASSIUM [1] was 6.9 MEQ/L, the SODIUM [1] was 151.33 MEQ/L and the “TOTAL BILIRUBIN” value [1] was 0.57 mg/dL. The “TOTAL PROTEIN” value [1] was 6.1 G/DL, the BASOPHIL [2] was 0% and the EOSINOPHIL [2] was 1%. For the same molecule, the “ERYTHROCYTE COUNT” value [2] was 6.02 x10E6/uL, the HEMATOCRIT [2] was 36.33% and the HEMOGLOBIN [2] was 15.57 G/DL. The “LEUKOCYTE COUNT” value [2] was 13.27 x10E3/uL, the LYMPHOCYTE [2] was 86.33% and the “MEAN CORPUSCULAR HEMOGLOBIN” value [2] was 25.9 pg. The “MEAN CORPUSCULAR HEMOGLOBIN CONCENTRATION” value [2] was 42.9 G/DL, the “MEAN CORPUSCULAR VOLUME” value [2] was 60.4 fL and the MONOCYTE [2] was 1.33%. The NEUTROPHIL [2] was 11.33%, the “PLATELET COUNT” value [2] was 1112.33 x10E3/uL and the “ALANINE AMINOTRANSFERASE” value [2] was 38.67 u/L. The ALBUMIN [2] was 3.83 G/DL, the “ALKALINE PHOSPHATASE” value [2] was 339.67 u/L and the “ASPARTATE AMINOTRANSFERASE” value [2] was 60 u/L. The “BLOOD UREA NITROGEN” value [2] was 14.33 mg/dL, the CHLORIDE [2] was 108.67 MEQ/L and the CHOLESTEROL [2] was 65.33 mg/dL. For the same molecule, the “CREATINE PHOSPHOKINASE” value [2] was 168.67 u/L, the CREATININE [2] was 0.7 mg/dL and the GLUCOSE [2] was 182.33 mg/dL. For the same molecule, the PHOSPHORUS [2] was 12 mg/dL, the POTASSIUM [2] was 6.77 MEQ/L and the SODIUM [2] was 149 MEQ/L. The “TOTAL BILIRUBIN” value [2] was 0.6 mg/dL, the “TOTAL PROTEIN” value [2] was 6.27 G/DL and the BASOPHIL [3] was 0%. For the same molecule, the EOSINOPHIL [3] was 0.33%, the “ERYTHROCYTE COUNT” value [3] was 6.59 x10E6/uL and the HEMATOCRIT [3] was 38.93%. For the same molecule, the HEMOGLOBIN [3] was 15.5 G/DL, the “LEUKOCYTE COUNT” value [3] was 12 x10E3/uL and the LYMPHOCYTE [3] was 88.67%. For the same molecule, the “MEAN CORPUSCULAR HEMOGLOBIN” value [3] was 23.53 pg, the “MEAN CORPUSCULAR HEMOGLOBIN CONCENTRATION” value [3] was 39.8 G/DL and the “MEAN CORPUSCULAR VOLUME” value [3] was 59.17 fL. The MONOCYTE [3] was 2.33%, the NEUTROPHIL [3] was 8.67% and the “PLATELET COUNT” value [3] was 1142.67 x10E3/uL. The “ALANINE AMINOTRANSFERASE” value [3] was 38 u/L, the ALBUMIN [3] was 3.63 G/DL and the “ALKALINE PHOSPHATASE” value [3] was 350.33 u/L. For the same molecule, the “ASPARTATE AMINOTRANSFERASE” value [3] was 63.67 u/L, the “BLOOD UREA NITROGEN” value [3] was 14.33 mg/dL and the CHLORIDE [3] was 106.33 MEQ/L. For the same molecule, the CHOLESTEROL [3] was 88.67 mg/dL, the “CREATINE PHOSPHOKINASE” value [3] was 166.33 u/L and the CREATININE [3] was 0.5 mg/dL. The GLUCOSE [3] was 164.67 mg/dL, the PHOSPHORUS [3] was 10.83 mg/dL and the POTASSIUM [3] was 6.27 MEQ/L. For the same molecule, the SODIUM [3] was 152.33 MEQ/L, the “TOTAL BILIRUBIN” value [3] was 0.4 mg/dL and the “TOTAL PROTEIN” value [3] was 5.93 G/DL. For the same molecule, the BASOPHIL [4] was 0%, the EOSINOPHIL [4] was 1% and the “ERYTHROCYTE COUNT” value [4] was 7.43 x10E6/uL. For the same molecule, the HEMATOCRIT [4] was 42%, the HEMOGLOBIN [4] was 16.1 G/DL and the “LEUKOCYTE COUNT” value [4] was 7.2 x10E3/uL. The LYMPHOCYTE [4] was 85%, the “MEAN CORPUSCULAR HEMOGLOBIN” value [4] was 21.7 pg and the “MEAN CORPUSCULAR HEMOGLOBIN CONCENTRATION” value [4] was 38.3 G/DL. The “MEAN CORPUSCULAR VOLUME” value [4] was 56.5 fL, the MONOCYTE [4] was 1% and the NEUTROPHIL [4] was 13%. The “PLATELET COUNT” value [4] was 1275 x10E3/uL, the “ALANINE AMINOTRANSFERASE” value [4] was 81 u/L and the ALBUMIN [4] was 3.7 G/DL. The “ALKALINE PHOSPHATASE” value [4] was 457 u/L, the “ASPARTATE AMINOTRANSFERASE” value [4] was 158 u/L and the “BLOOD UREA NITROGEN” value [4] was 17.5 mg/dL. For the same molecule, the CHLORIDE [4] was 108 MEQ/L, the CHOLESTEROL [4] was 44.5 mg/dL and the “CREATINE PHOSPHOKINASE” value [4] was 289 u/L. The CREATININE [4] was 0.65 mg/dL, the GLUCOSE [4] was 206 mg/dL and the PHOSPHORUS [4] was 12.6 mg/dL. The POTASSIUM [4] was 7.3 MEQ/L, the SODIUM [4] was 151.5 MEQ/L and the “TOTAL BILIRUBIN” value [4] was 0.35 mg/dL. The “TOTAL PROTEIN” value [4] was 5.95 G/DL.
